# Test results from patent publication US20040186113A1, “Heterocyclic amines for the treatment of conditions associated with gsk-3” (priority 2001, published 2004).
row,SMILES,melting point [°C]
1,"Nc1ncc(-c2cccs2)nc1C(=O)Nc1cccnc1 [Example 6, 3-Amino-6-(2-thienyl)-N-pyridin-3-ylpyrazine-2-carboxamide]",178 to 189
2,"Nc1ncc(-c2cccc(Cl)c2Cl)nc1C(=O)Nc1cccnc1 [Example 12, 3-Amino-6-(2,3-dichlorophenyl)-N-pyridin-3-ylpyrazine-2-carboxamide]",239 to 241
3,"Nc1ncc(-c2ccc(F)cc2F)nc1C(=O)Nc1cccnc1 [Example 14, 3-Amino-6-(2,4-difluorophenyl)-N-pyridin-3-ylpyrazine-2-carboxamide]",232 to 234
4,"Nc1ncc(-c2ccc(F)cc2)nc1C(=O)Nc1cccnc1 [Example 10, 3-Amino-6-(4-fluorophenyl)-N-pyridin-3-ylpyrazine-2-carboxamide]",193 to 197

# The remaining lines, values ahead:
row,melting point [°C],SMILES
1,221 to 225,"Nc1ncc(-c2ccccc2F)nc1C(=O)Nc1cccnc1 [Example 20, 3-Amino-6-(2-fluorophenyl)-N-pyridin-3-ylpyrazine-2-carboxamide]"
2,186 to 189,"Cc1cc(-c2cnc(N)c(C(=O)Nc3cccnc3)n2)ccc1F [Example 17, 3-Amino-6-[4-fluoro-3-methylphenyl]-N-pyridin-3-ylpyrazine-2-carboxamide]"
3,178 to 182,"Cc1ccc(-c2cnc(N)c(C(=O)Nc3cccnc3)n2)cc1C [Example 18, 3-Amino-6-(3,4-dimethylphenyl)-N-pyridin-3-ylpyrazine-2-carboxamide]"
4,232 to 234,"Nc1ncc(-c2ccc(F)c(F)c2)nc1C(=O)Nc1cccnc1 [Example 15, 3-Amino-6-(3,4-difluorophenyl)-N-pyridin-3-ylpyrazine-2-carboxamide]"
5,234.5 to 238,"Nc1ncc(-c2cccc(F)c2)nc1C(=O)Nc1cccnc1 [Example 19, 3-Amino-6-(3-fluorophenyl)-N-pyridin-3-ylpyrazine-2-carboxamide]"
6,236 to 238.5,"Nc1ncc(-c2ccc(F)c(Cl)c2)nc1C(=O)Nc1cccnc1 [Example 16, 3-Amino-6-(3-chloro-4-fluorophenyl)-N-pyridin-3-ylpyrazine-2-carboxamide]"
